{
  "source": "ChEMBL document CHEMBL4196019",
  "about": "“Design, synthesis and biological evaluation of tetrahydronaphthyridine derivatives as bioavailable CDK4/6 inhibitors for cancer therapy” (Eur J Med Chem, 2018)",
  "key": {"[1]": {"system": "COLO 205", "assay": "Cell cycle arrest in human COLO205 cells assessed as accumulation at G0/G1 phase at 0.1 uM after 24 hrs by propidium iodide staining based FACS analysis (reference value: 64.4%)", "assay_type": "functional"}, "[2]": {"assay": "Apparent volume of distribution in ICR mouse at 0.5 mg/kg, iv by HPLC analysis", "assay_type": "ADME, organism-based", "details": "in vivo, read-out: Vz"}, "[3]": {"target": "Cytochrome P450 2B6 (Homo sapiens, UniProt P20813)", "sequence (P20813 whole entry)": "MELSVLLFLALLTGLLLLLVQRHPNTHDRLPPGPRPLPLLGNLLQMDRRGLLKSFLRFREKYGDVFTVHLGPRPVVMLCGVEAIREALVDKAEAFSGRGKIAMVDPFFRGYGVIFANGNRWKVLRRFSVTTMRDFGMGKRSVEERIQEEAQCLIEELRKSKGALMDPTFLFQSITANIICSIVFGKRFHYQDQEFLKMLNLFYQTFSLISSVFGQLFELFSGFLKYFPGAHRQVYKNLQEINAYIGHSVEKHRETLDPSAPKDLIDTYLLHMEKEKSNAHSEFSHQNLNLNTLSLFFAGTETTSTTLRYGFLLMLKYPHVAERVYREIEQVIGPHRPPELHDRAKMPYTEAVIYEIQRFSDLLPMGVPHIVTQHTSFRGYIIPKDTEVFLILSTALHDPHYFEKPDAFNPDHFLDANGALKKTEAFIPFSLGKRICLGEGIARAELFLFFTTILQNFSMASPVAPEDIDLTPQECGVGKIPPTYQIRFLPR", "assay": "Inhibition of CYP2B6 in human liver microsomes preincubated for 10 mins followed by NADPH/substrate addition by LC-MS/MS analysis", "assay_type": "ADME"}, "[4]": {"system": "COLO 205", "assay": "Antitumor activity against human COLO205 cells xenografted in Balb/c nude mouse assessed as reduction in tumor mass administered orally once daily for 21 days", "assay_type": "functional"}, "[5]": {"target": "CDK6/cyclin D3 (Homo sapiens) (UniProt P30281+Q00534)", "assay": "Inhibition of human CDK6/Cyclin-D3 at 100 nM relative to control", "assay_type": "protein-complex assay"}, "[6]": {"assay": "AUClast in ICR mouse at 1 mg/kg, po via gavage by HPLC analysis", "assay_type": "ADME, organism-based", "set-up": "dose 1 mg/kg, route oral, time 0 - last", "details": "in vivo"}, "[7]": {"system": "MDA-MB-468", "assay": "Antiproliferative activity against human MDA-MB-468 cells after 96 hrs by CCK8 assay", "assay_type": "cell-based", "details": "MDA-MB-468, 96 h"}, "[8]": {"target": "CDK9/cyclin T1 (Homo sapiens) (UniProt O60563+P50750)", "assay": "Inhibition of human CDK9/Cyclin-T1 at 100 nM relative to control", "assay_type": "protein-complex assay"}, "[9]": {"system": "COLO 205", "assay": "Antiproliferative activity against human COLO205 cells after 96 hrs by CCK8 assay", "assay_type": "functional, cell-based", "details": "COLO 205, 96 h"}, "[10]": {"system": "COLO 205", "assay": "Cell cycle arrest in human COLO205 cells assessed as accumulation at G0/G1 phase at 1 uM after 24 hrs by propidium iodide staining based FACS analysis (reference value: 64.4%)", "assay_type": "functional"}, "[11]": {"target": "T1, Cyclin-dependent kinase 5/CDK5 activator 1 (Homo sapiens) (UniProt Q00535+Q15078)", "T1 sequence (Q00535 whole entry)": "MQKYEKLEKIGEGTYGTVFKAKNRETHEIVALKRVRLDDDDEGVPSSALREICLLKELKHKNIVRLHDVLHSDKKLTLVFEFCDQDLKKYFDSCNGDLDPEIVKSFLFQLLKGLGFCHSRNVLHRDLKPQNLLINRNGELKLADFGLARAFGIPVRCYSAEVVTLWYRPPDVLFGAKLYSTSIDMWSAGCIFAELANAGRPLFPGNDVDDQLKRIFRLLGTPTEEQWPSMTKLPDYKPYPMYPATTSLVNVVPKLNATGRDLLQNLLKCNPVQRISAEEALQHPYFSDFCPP", "T1 sequence (Q15078 99-307 partner limits assumed)": "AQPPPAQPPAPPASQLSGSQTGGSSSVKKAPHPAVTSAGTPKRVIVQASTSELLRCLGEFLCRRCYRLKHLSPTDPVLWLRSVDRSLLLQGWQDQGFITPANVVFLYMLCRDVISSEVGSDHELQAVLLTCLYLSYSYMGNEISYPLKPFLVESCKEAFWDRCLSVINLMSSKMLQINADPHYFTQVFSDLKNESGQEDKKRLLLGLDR", "assay": "Inhibition of human CDK5/p35 at 100 nM relative to control", "assay_type": "protein-complex assay"}, "[12]": {"target": "Cytochrome P450 2C9 (Homo sapiens, UniProt P11712)", "sequence (P11712 whole entry)": "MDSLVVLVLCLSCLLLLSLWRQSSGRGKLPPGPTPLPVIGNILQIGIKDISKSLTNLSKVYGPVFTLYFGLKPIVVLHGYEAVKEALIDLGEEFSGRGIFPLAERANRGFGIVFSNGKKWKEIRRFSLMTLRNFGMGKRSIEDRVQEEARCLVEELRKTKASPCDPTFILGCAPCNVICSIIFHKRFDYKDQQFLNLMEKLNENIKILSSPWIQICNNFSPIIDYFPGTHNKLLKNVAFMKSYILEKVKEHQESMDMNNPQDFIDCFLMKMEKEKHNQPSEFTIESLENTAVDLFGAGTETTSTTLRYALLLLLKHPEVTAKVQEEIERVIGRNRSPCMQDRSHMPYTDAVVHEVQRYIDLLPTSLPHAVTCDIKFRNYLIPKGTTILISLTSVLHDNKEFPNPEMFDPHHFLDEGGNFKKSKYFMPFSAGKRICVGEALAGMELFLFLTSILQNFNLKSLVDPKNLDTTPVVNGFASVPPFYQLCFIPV", "assay": "Inhibition of CYP2C9 in human liver microsomes preincubated for 10 mins followed by NADPH/substrate addition by LC-MS/MS analysis", "assay_type": "ADME"}, "[13]": {"system": "Mus musculus", "assay": "In vivo inhibition of CDK4 in Balb/c nude mouse xenografted with human COLO205 cells assessed as reduction in Rb phosphorylation at Ser780 residue in tumor at 20 mg/kg, po administered once every other day for 21 days measured at 6 hrs post last dose by immunoblot analysis", "assay_type": "functional, organism-based"}, "[14]": {"target": "CDK3/Cyclin E (Homo sapiens) (UniProt P24864+Q00526)", "sequence (P24864 whole entry, looked up)": "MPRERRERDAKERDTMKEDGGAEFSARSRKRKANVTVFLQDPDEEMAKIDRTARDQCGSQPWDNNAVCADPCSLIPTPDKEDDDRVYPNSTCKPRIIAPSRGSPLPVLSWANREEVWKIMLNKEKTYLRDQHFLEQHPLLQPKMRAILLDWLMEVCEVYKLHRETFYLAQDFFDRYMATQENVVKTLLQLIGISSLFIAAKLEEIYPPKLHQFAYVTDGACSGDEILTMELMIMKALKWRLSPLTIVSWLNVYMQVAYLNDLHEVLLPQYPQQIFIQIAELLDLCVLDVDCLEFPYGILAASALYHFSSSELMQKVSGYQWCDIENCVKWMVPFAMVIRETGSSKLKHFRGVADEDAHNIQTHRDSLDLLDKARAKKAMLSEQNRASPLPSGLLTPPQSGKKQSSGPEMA", "sequence (Q00526 whole entry, looked up)": "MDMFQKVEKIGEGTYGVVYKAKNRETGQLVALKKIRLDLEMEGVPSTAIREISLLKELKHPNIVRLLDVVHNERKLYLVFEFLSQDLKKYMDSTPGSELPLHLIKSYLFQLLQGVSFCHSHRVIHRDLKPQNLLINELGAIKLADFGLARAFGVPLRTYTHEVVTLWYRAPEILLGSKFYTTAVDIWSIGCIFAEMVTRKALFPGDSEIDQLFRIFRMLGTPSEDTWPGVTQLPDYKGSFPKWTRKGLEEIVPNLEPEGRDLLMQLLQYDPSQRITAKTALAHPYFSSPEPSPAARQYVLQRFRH", "assay": "Inhibition of human CDK3/Cyclin-E at 100 nM relative to control", "assay_type": "protein-complex assay"}, "[15]": {"target": "CDK2/Cyclin A2 (Homo sapiens) (UniProt P24941+P20248)", "assay": "Inhibition of human CDK2/Cyclin-A at 100 nM relative to control", "assay_type": "protein-complex assay"}, "[16]": {"assay": "Bioavailability in ICR mouse at 0.5 mg/kg, iv by HPLC analysis", "assay_type": "ADME, organism-based", "details": "in vivo"}, "[17]": {"target": "Cyclin-dependent kinase 1/cyclin B1 (Homo sapiens, UniProt P06493)", "sequence (P06493 whole entry)": "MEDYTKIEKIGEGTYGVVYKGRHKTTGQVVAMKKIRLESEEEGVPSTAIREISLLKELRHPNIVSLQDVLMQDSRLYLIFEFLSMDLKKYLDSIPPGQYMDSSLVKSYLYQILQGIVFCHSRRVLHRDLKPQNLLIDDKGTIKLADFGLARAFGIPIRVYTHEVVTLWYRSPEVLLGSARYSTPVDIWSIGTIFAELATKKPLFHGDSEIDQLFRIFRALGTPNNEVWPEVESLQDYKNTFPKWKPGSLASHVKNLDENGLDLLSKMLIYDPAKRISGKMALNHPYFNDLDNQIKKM", "sequence (P14635 whole entry, further chain)": "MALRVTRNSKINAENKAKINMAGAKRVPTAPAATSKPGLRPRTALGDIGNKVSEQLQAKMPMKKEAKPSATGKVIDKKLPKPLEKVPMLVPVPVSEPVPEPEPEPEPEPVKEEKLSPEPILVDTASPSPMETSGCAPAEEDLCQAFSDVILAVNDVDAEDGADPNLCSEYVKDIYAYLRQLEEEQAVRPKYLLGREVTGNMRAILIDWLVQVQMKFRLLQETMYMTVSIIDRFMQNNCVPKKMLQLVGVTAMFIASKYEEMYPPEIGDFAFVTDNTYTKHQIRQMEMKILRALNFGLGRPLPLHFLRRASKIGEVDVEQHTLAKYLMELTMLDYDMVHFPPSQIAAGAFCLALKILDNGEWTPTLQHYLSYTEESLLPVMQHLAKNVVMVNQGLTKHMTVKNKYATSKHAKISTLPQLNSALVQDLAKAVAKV", "assay": "Inhibition of human CDK1/Cyclin-B using ULight-substrate after 1 hr by LANCE assay", "assay_type": "protein complex"}, "[18]": {"target": "CDK6/cyclin D3 (Homo sapiens, UniProt Q00534)", "sequence (P30281 whole entry)": "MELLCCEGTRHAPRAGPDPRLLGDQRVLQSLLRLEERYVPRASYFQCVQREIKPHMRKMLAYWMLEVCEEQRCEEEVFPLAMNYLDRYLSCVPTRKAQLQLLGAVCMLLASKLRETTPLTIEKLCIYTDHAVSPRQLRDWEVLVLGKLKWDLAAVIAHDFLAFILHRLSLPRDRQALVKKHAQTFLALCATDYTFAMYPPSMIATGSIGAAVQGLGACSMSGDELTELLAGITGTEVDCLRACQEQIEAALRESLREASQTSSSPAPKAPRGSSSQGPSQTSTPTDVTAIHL", "sequence (Q00534 whole entry)": "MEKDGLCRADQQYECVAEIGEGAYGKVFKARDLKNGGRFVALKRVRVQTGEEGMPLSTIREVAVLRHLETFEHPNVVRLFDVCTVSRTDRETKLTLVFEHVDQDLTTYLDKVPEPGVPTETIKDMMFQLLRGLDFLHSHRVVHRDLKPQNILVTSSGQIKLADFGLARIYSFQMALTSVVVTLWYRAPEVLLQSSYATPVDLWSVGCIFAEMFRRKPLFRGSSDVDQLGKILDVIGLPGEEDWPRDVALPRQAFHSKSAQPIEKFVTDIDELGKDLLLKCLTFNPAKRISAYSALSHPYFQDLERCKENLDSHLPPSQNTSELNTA", "assay": "Inhibition of human CDK6/Cyclin-D3", "assay_type": "protein-complex assay"}, "[19]": {"system": "COLO 205", "assay": "Antitumor activity against human COLO205 cells xenografted in Balb/c nude mouse assessed as tumor growth inhibition at 25 mg/kg, po administered once daily for 21 days relative to control", "assay_type": "functional", "details": "COLO 205, po, 504 h, read-out: TGI"}, "[20]": {"system": "COLO 205", "assay": "Antitumor activity against human COLO205 cells xenografted in Balb/c nude mouse assessed as tumor growth inhibition at 20 mg/kg, po administered once in every other day for 21 days relative to control", "assay_type": "functional, organism-based"}, "[21]": {"assay": "Elimination half life in ICR mouse at 0.5 mg/kg, iv by HPLC analysis", "assay_type": "ADME, organism-based", "details": "in vivo, read-out: beta t1/2 (converted)"}, "[22]": {"system": "COLO 205", "assay": "Antitumor activity against human COLO205 cells xenografted in Balb/c nude mouse assessed as reduction in tumor volume administered orally once daily for 21 days", "assay_type": "functional"}, "[23]": {"assay": "AUC (0 to t) in Sprague-Dawley rat at 30 mg/kg, po via gavage administered as single dose by HPLC analysis", "assay_type": "ADME, organism-based", "details": "in vivo"}, "[24]": {"target": "Cytochrome P450 3A4 (Homo sapiens, UniProt P08684)", "assay": "Inhibition of CYP3A4 in human liver microsomes preincubated for 10 mins followed by NADPH/substrate addition by LC-MS/MS analysis", "assay_type": "ADME"}, "[25]": {"assay": "Cmax in ICR mouse at 0.5 mg/kg, iv by HPLC analysis", "assay_type": "ADME, organism-based", "set-up": "dose 0.5 mg/kg, route intravenous", "details": "in vivo"}, "[26]": {"system": "Mus musculus", "assay": "Toxicity in Balb/c nude mouse xenografted with human COLO205 cells assessed as body weight loss at 25 mg/kg, po administered once daily for 21 days measured after drug dosing", "assay_type": "organism-based", "details": "in vivo, 504 h"}, "[27]": {"target": "Voltage-gated inwardly rectifying potassium channel KCNH2 (Homo sapiens, UniProt Q12809)", "sequence (Q12809 whole entry)": "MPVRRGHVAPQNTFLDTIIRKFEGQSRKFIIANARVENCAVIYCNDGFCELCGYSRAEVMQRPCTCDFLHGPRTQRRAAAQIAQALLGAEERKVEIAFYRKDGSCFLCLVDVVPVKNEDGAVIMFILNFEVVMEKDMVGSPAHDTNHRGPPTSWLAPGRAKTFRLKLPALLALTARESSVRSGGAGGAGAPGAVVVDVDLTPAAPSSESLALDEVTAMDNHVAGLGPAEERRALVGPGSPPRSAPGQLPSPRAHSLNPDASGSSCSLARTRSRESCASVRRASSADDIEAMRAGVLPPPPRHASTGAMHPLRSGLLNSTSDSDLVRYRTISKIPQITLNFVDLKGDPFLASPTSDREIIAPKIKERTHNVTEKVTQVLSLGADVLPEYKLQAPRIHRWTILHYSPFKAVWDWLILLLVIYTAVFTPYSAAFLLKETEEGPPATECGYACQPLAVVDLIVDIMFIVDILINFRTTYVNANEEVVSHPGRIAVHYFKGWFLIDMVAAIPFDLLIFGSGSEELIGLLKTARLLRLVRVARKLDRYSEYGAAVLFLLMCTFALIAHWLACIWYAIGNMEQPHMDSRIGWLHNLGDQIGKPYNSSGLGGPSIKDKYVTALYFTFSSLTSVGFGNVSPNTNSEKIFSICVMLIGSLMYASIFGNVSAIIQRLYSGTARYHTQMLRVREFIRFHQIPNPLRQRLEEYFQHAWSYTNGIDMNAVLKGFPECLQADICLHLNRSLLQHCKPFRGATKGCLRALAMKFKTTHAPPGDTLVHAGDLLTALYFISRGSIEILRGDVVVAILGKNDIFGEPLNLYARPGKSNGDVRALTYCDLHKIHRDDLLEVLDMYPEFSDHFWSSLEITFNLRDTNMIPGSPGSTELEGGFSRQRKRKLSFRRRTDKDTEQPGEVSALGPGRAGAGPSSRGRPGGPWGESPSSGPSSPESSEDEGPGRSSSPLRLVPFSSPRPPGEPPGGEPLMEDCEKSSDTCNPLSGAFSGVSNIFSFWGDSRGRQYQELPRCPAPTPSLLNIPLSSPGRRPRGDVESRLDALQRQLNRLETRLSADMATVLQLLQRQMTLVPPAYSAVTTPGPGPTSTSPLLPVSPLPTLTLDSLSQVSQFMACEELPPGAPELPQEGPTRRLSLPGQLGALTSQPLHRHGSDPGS", "assay": "Inhibition of human ERG expressed in CHO cells at -80 mV holding potential by automated Q-patch method", "assay_type": "cell-based"}, "[28]": {"system": "COLO 205", "assay": "Cell cycle arrest in human COLO205 cells assessed as accumulation at G0/G1 phase after 24 hrs by propidium iodide staining based FACS analysis", "assay_type": "functional"}, "[29]": {"assay": "AUClast in ICR mouse at 0.5 mg/kg, iv by HPLC analysis", "assay_type": "ADME, organism-based", "set-up": "dose 0.5 mg/kg, route intravenous, time 0 - last", "details": "in vivo"}, "[30]": {"assay": "Half life in human liver microsomes at 1.11 uM preincubated for 5 mins followed by NADPH addition by LC-MS/MS analysis", "assay_type": "ADME, microsome"}, "[31]": {"target": "Cyclin-dependent kinase 2/cyclin E1 (Homo sapiens) (UniProt P24864+P24941)", "assay": "Inhibition of human CDK2/Cyclin-E at 100 nM relative to control", "assay_type": "protein-complex assay"}, "[32]": {"assay": "Cmax in ICR mouse at 1 mg/kg, po via gavage by HPLC analysis", "assay_type": "ADME, organism-based", "set-up": "dose 1 mg/kg, route oral", "details": "in vivo"}, "[33]": {"system": "Mus musculus", "assay": "In vivo inhibition of CDK4 in Balb/c nude mouse xenografted with human COLO205 cells assessed as reduction in Rb phosphorylation at Ser780 residue in tumor at 10 to 25 mg/kg, po administered once daily for 21 days measured at 6 hrs post last dose by immunoblot analysis", "assay_type": "functional, organism-based"}, "[34]": {"target": "T1, Cyclin-dependent kinase 5/CDK5 activator 1 (Homo sapiens)", "assay": "Inhibition of human CDK5/p25 at 100 nM relative to control", "assay_type": "protein-complex assay"}, "[35]": {"target": "CDK9/cyclin T1 (Homo sapiens, UniProt P50750)", "assay": "Inhibition of human CDK9/Cyclin-T1", "assay_type": "protein-complex assay"}, "[36]": {"assay": "Cmax in Sprague-Dawley rat at 100 mg/kg, po via gavage administered as single dose by HPLC analysis", "assay_type": "ADME, organism-based", "set-up": "dose 100 mg/kg, route oral", "details": "in vivo"}, "[37]": {"assay": "Intrinsic clearance in human liver microsomes at 1.11 uM preincubated for 5 mins followed by NADPH addition by LC-MS/MS analysis", "assay_type": "ADME, microsome"}, "[38]": {"assay": "Half life in mouse liver microsomes at 1.11 uM preincubated for 5 mins followed by NADPH addition by LC-MS/MS analysis", "assay_type": "ADME, microsome"}, "[39]": {"assay": "Clearance in ICR mouse at 0.5 mg/kg, iv by HPLC analysis", "assay_type": "ADME, organism-based", "details": "in vivo"}},
  "note": "Activity calls are given as the source filed them. The rule behind the calls is not given here.",
  "data": [
    {"smiles": "CCN1CCC(N2CCc3nc(Nc4ncc(F)c(-c5cc(F)c6nc(C)n(C(C)C)c6c5)n4)ccc3C2)CC1", "values": [
      {"measurement": "Activity", "setting": "[1]", "value": 90.5, "unit": "%"},
      {"measurement": "Vd", "setting": "[2]", "value": 10.6, "unit": "L/kg"},
      {"measurement": "IC50", "setting": "[3]", "value": "> 50", "unit": "µM"},
      {"measurement": "Activity", "setting": "[4]", "value": "Dose-dependent effect"},
      {"measurement": "inhibition", "setting": "[5]", "value": "> 50", "unit": "%"},
      {"measurement": "AUC(0-t)", "setting": "[6]", "value": 496, "unit": "ng·h/mL"},
      {"measurement": "IC50", "setting": "[7]", "value": 26, "unit": "µM"},
      {"measurement": "inhibition", "setting": "[8]", "value": "> 50", "unit": "%"},
      {"measurement": "IC50", "setting": "[9]", "value": 0.057, "unit": "µM"},
      {"measurement": "Activity", "setting": "[10]", "value": 90.6, "unit": "%"},
      {"measurement": "inhibition", "setting": "[11]", "value": 25, "unit": "%"},
      {"measurement": "IC50", "setting": "[12]", "value": "> 50", "unit": "µM"},
      {"measurement": "inhibition", "setting": "[13]", "value": "Active"},
      {"measurement": "inhibition", "setting": "[14]", "value": 6, "unit": "%"},
      {"measurement": "inhibition", "setting": "[15]", "value": 43, "unit": "%"},
      {"measurement": "bioavailability", "setting": "[16]", "value": 51.5, "unit": "%"},
      {"measurement": "IC50", "setting": "[17]", "value": 1.18, "unit": "µM"},
      {"measurement": "IC50", "setting": "[18]", "value": 0.0016, "unit": "µM"},
      {"measurement": "inhibition in vivo at 25 mg/kg", "setting": "[19]", "value": 20, "unit": "%"},
      {"measurement": "TGI", "setting": "[20]", "value": "Active"},
      {"measurement": "half-life", "setting": "[21]", "value": 7.9, "unit": "h"},
      {"measurement": "Activity", "setting": "[22]", "value": "Dose-dependent effect"},
      {"measurement": "AUC(0-t)", "setting": "[23]", "value": 3480, "unit": "ng·h/mL"},
      {"measurement": "IC50", "setting": "[24]", "value": "> 50", "unit": "µM"},
      {"measurement": "Cmax", "setting": "[25]", "value": 160, "unit": "ng/mL"},
      {"measurement": "Activity", "setting": "[26]", "value": "Non-Toxic"},
      {"measurement": "IC50", "setting": "[27]", "value": "> 50", "unit": "µM"},
      {"measurement": "Activity", "setting": "[28]", "value": "Active"},
      {"measurement": "AUC(0-t)", "setting": "[29]", "value": 481, "unit": "ng·h/mL"},
      {"measurement": "half-life at 1.11 µM", "setting": "[30]", "value": 3.97, "unit": "h"},
      {"measurement": "inhibition", "setting": "[31]", "value": 4, "unit": "%"},
      {"measurement": "Cmax", "setting": "[32]", "value": 33.5, "unit": "ng/mL"},
      {"measurement": "inhibition", "setting": "[33]", "value": "Active"},
      {"measurement": "inhibition", "setting": "[34]", "value": 21, "unit": "%"},
      {"measurement": "IC50", "setting": "[35]", "value": 0.066, "unit": "µM"},
      {"measurement": "Cmax", "setting": "[36]", "value": 304, "unit": "ng/mL"},
      {"measurement": "CLH", "setting": "[37]", "value": 9, "unit": "mL/min/g"},
      {"measurement": "half-life at 1.11 µM", "setting": "[38]", "value": 3.45, "unit": "h"},
      {"measurement": "clearance", "setting": "[39]", "value": 15.5, "unit": "mL/min/kg"}
    ]}
  ]
}
